In patent US9833497B2, “Human originated EGF domain proteins and use of the same” (CHENGDU SOURCEBIO LIMITED-LIABILITY COMPANY, priority 2013, dated 2017):

Experiments:
Assay type in all cases: cell-based
Pseudomonas aeruginosa = test: MIC against Gram-negative bacteria: Pseudomonas aeruginosa; details: Pseudomonas aeruginosa; 96-well plate, 5×10^5 CFU/mL, 37° C., 10 h
Outline: (§1)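 LB broth cultures at McFarland 0.5, spun down, resuspended, diluted to 5×10^5 CFU/mL final. Two-fold serial dilutions of purified human EGF domain proteins, triplicate. 37° C, 175 rpm shaking. Endpoint: no visible growth.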

Serratia marcescens = test: MIC against Gram-negative bacteria: Serratia marcescens; details: Serratia marcescens; 96-well plate, 5×10^5 CFU/mL, 37° C., 10 h
Outline: as §1

Klebsiella pneumonia = test: MIC against Gram-negative bacteria: Klebsiella pneumonia; details: Klebsiella pneumonia; 96-well plate, 5×10^5 CFU/mL, 37° C., 10 h
Outline: as §1

Proteus mirabilis = test: MIC against Gram-negative bacteria: Proteus mirabilis; details: Proteus mirabilis; 96-well plate, 5×10^5 CFU/mL, 37° C., 10 h
Outline: as §1

E. coli BL21 = test: MIC against Gram-negative bacteria: E. coli BL21; details: E. coli BL21; 96-well plate, 5×10^5 CFU/mL, 37° C., 10 h
Outline: as §1

Aeromonas hydrophila = test: MIC against Gram-negative bacteria: Aeromonas hydrophila; details: Aeromonas hydrophila; 96-well plate, 5×10^5 CFU/mL, 37° C., 10 h
Outline: as §1

Enterobacter cloacae = test: MIC against Gram-negative bacteria: Enterobacter cloacae; details: Enterobacter cloacae; 96-well plate, 5×10^5 CFU/mL, 37° C., 10 h
Outline: as §1

Moraxella catarrhalis = test: MIC against Gram-negative bacteria: Moraxella catarrhalis; details: Moraxella catarrhalis; 96-well plate, 5×10^5 CFU/mL, 37° C., 10 h
Outline: as §1

E. coli DH5α = test: Antibacterial activity: MIC and growth curve against E. coli DH5α in 96-well plate; details: minimal inhibitory concentration against E. coli DH5α; 96-well plate, 5×10^5 CFU/mL, 37° C., judged after 8 h
Outline: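 Log-phase bacteria (OD600 ~0.5) resuspended in LB at 5×10^5 CFU/mL, exposed to recombinant protein at 50, 25, 12.5 μg/mL final in triplicate, 37 °C shaking at 175 rpm. OD600 read every 30 min; MIC is lowest concentration showing no growth.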

Citrobacter diversus = test: MIC against Gram-negative bacteria: Citrobacter diversus; details: Citrobacter diversus; 96-well plate, 5×10^5 CFU/mL, 37° C., 10 h
Outline: as §1

Proteus vulgaris = test: MIC against Gram-negative bacteria: Proteus vulgaris; details: Proteus vulgaris; 96-well plate, 5×10^5 CFU/mL, 37° C., 10 h
Outline: as §1

PRT1218 (DINECEREECENGGSCVNVFGSFLCNCTPGYVGQYCG; listed as Homo sapiens)
12.5 µg/mL: MIC against K. pneumonia (Klebsiella pneumonia) | MIC against P. mirabilis (Proteus mirabilis) | MIC against A. hydrophila (Aeromonas hydrophila) | MIC against E. cloacae (Enterobacter cloacae) | MIC against M. catarrhalis (Moraxella catarrhalis) | MIC (E. coli DH5α) | MIC against P. vulgaris (Proteus vulgaris)
25 µg/mL: MIC against P. aeruginosa (Pseudomonas aeruginosa) | MIC against S. marcescens (Serratia marcescens) | MIC against E. coli BL21 (E. coli BL21) | MIC against C. diversus (Citrobacter diversus)

PRT1219 (DHDSCVHGPCQNGGSCLRRLAVSSVLKSRESLPVIIVANEPLQPFLCKCLPGYAGSWCE; listed as Homo sapiens)
50 µg/mL: MIC against P. mirabilis (Proteus mirabilis) | MIC against E. coli BL21 (E. coli BL21) | MIC against E. cloacae (Enterobacter cloacae)
25 µg/mL: MIC against P. aeruginosa (Pseudomonas aeruginosa) | MIC against S. marcescens (Serratia marcescens) | MIC against M. catarrhalis (Moraxella catarrhalis) | MIC against C. diversus (Citrobacter diversus) | MIC against P. vulgaris (Proteus vulgaris)
12.5 µg/mL: MIC against K. pneumonia (Klebsiella pneumonia) | MIC against A. hydrophila (Aeromonas hydrophila) | MIC (E. coli DH5α)

PRT1221 (DINECLQSPCKNGAICQNFPGSFNCVCKTGYTGKMCE; listed as Homo sapiens)
12.5 µg/mL: MIC against E. coli BL21 (E. coli BL21) | MIC against C. diversus (Citrobacter diversus) | MIC against P. vulgaris (Proteus vulgaris)
50 µg/mL: MIC against S. marcescens (Serratia marcescens) | MIC against E. cloacae (Enterobacter cloacae) | MIC against M. catarrhalis (Moraxella catarrhalis)
25 µg/mL: MIC against P. aeruginosa (Pseudomonas aeruginosa) | MIC against K. pneumonia (Klebsiella pneumonia) | MIC against P. mirabilis (Proteus mirabilis) | MIC against A. hydrophila (Aeromonas hydrophila) | MIC (E. coli DH5α)

PRT1222 (SVNYCECNPCFNGGSCQSGVDSYYCHCPFGVFGKHCE; listed as Homo sapiens)
50 µg/mL: MIC against P. aeruginosa (Pseudomonas aeruginosa) | MIC against P. mirabilis (Proteus mirabilis) | MIC against A. hydrophila (Aeromonas hydrophila)
25 µg/mL: MIC against E. coli BL21 (E. coli BL21) | MIC against E. cloacae (Enterobacter cloacae) | MIC against M. catarrhalis (Moraxella catarrhalis) | MIC against P. vulgaris (Proteus vulgaris)
12.5 µg/mL: MIC against S. marcescens (Serratia marcescens) | MIC against K. pneumonia (Klebsiella pneumonia) | MIC (E. coli DH5α) | MIC against C. diversus (Citrobacter diversus)

PRT1223 (LEGACTRSPCQHGGTCMDYWSWQQCHCKEGLTGKYCE; listed as Homo sapiens)
50 µg/mL: MIC against K. pneumonia (Klebsiella pneumonia) | MIC against M. catarrhalis (Moraxella catarrhalis) | MIC (E. coli DH5α) | MIC against P. vulgaris (Proteus vulgaris)
12.5 µg/mL: MIC against P. aeruginosa (Pseudomonas aeruginosa) | MIC against S. marcescens (Serratia marcescens) | MIC against P. mirabilis (Proteus mirabilis)
100 µg/mL: MIC against A. hydrophila (Aeromonas hydrophila)
25 µg/mL: MIC against E. coli BL21 (E. coli BL21) | MIC against E. cloacae (Enterobacter cloacae) | MIC against C. diversus (Citrobacter diversus)

PRT1224 (PPGDCASHPCQNGGSCEPGLHSGFTCSCPDSHTGRTCE; listed as Homo sapiens)
12.5 µg/mL: MIC against K. pneumonia (Klebsiella pneumonia) | MIC against C. diversus (Citrobacter diversus) | MIC against P. vulgaris (Proteus vulgaris)
50 µg/mL: MIC against S. marcescens (Serratia marcescens) | MIC against P. mirabilis (Proteus mirabilis) | MIC against E. coli BL21 (E. coli BL21) | MIC against A. hydrophila (Aeromonas hydrophila)
25 µg/mL: MIC against P. aeruginosa (Pseudomonas aeruginosa) | MIC against E. cloacae (Enterobacter cloacae) | MIC against M. catarrhalis (Moraxella catarrhalis) | MIC (E. coli DH5α)

PRT1226 (YTASCQDMSCSKQGECLETIGNYTCSCYPGFYGPECE; listed as Homo sapiens)
12.5 µg/mL: MIC against K. pneumonia (Klebsiella pneumonia) | MIC against M. catarrhalis (Moraxella catarrhalis) | MIC against P. vulgaris (Proteus vulgaris)
25 µg/mL: MIC against P. aeruginosa (Pseudomonas aeruginosa) | MIC against S. marcescens (Serratia marcescens) | MIC against A. hydrophila (Aeromonas hydrophila) | MIC against E. cloacae (Enterobacter cloacae) | MIC (E. coli DH5α)
50 µg/mL: MIC against P. mirabilis (Proteus mirabilis) | MIC against E. coli BL21 (E. coli BL21) | MIC against C. diversus (Citrobacter diversus)

PRT1227 (NLKLCDASNHCDRHGVCNNFNHCHCEKGYNPPYCQ; listed as Homo sapiens)
25 µg/mL: MIC against K. pneumonia (Klebsiella pneumonia) | MIC against E. coli BL21 (E. coli BL21) | MIC against P. vulgaris (Proteus vulgaris)
12.5 µg/mL: MIC against P. aeruginosa (Pseudomonas aeruginosa) | MIC against S. marcescens (Serratia marcescens) | MIC against P. mirabilis (Proteus mirabilis) | MIC against A. hydrophila (Aeromonas hydrophila) | MIC against E. cloacae (Enterobacter cloacae) | MIC against M. catarrhalis (Moraxella catarrhalis) | MIC against C. diversus (Citrobacter diversus)
50 µg/mL: MIC (E. coli DH5α)

PRT1228 (CPPCPKYASCHNSTHCTCEDGFRARSGRTYFHDSSEKCE; listed as Homo sapiens)
25 µg/mL: MIC against K. pneumonia (Klebsiella pneumonia) | MIC against E. coli BL21 (E. coli BL21) | MIC against A. hydrophila (Aeromonas hydrophila) | MIC against M. catarrhalis (Moraxella catarrhalis) | MIC against P. vulgaris (Proteus vulgaris)
50 µg/mL: MIC against P. aeruginosa (Pseudomonas aeruginosa) | MIC against S. marcescens (Serratia marcescens) | MIC against C. diversus (Citrobacter diversus)
12.5 µg/mL: MIC against P. mirabilis (Proteus mirabilis) | MIC against E. cloacae (Enterobacter cloacae) | MIC (E. coli DH5α)

PRT1229 (DINECETGLAKCKYKAYCRNKVGGYICSCLVKYTLFNFLAGIIDYDHPDCY; listed as Homo sapiens)
12.5 µg/mL: MIC against P. aeruginosa (Pseudomonas aeruginosa) | MIC against S. marcescens (Serratia marcescens) | MIC against K. pneumonia (Klebsiella pneumonia) | MIC against P. mirabilis (Proteus mirabilis) | MIC against E. coli BL21 (E. coli BL21) | MIC against A. hydrophila (Aeromonas hydrophila) | MIC against M. catarrhalis (Moraxella catarrhalis) | MIC against C. diversus (Citrobacter diversus) | MIC against P. vulgaris (Proteus vulgaris)
25 µg/mL: MIC against E. cloacae (Enterobacter cloacae) | MIC (E. coli DH5α)

PRT1231 (IGPSCLKFCSGRGQCTRHGCKCDPGFSGPACE; listed as Homo sapiens)
12.5 µg/mL: MIC against K. pneumonia (Klebsiella pneumonia) | MIC against M. catarrhalis (Moraxella catarrhalis) | MIC (E. coli DH5α) | MIC against P. vulgaris (Proteus vulgaris)
50 µg/mL: MIC against P. aeruginosa (Pseudomonas aeruginosa) | MIC against P. mirabilis (Proteus mirabilis) | MIC against E. cloacae (Enterobacter cloacae) | MIC against C. diversus (Citrobacter diversus)
25 µg/mL: MIC against S. marcescens (Serratia marcescens) | MIC against E. coli BL21 (E. coli BL21)
100 µg/mL: MIC against A. hydrophila (Aeromonas hydrophila)

PRT1232 (IGQQCPNMCSGHGSCDHGICRCDQGYQGTECH; listed as Homo sapiens)
25 µg/mL: MIC against P. aeruginosa (Pseudomonas aeruginosa) | MIC against S. marcescens (Serratia marcescens) | MIC against P. mirabilis (Proteus mirabilis) | MIC against E. coli BL21 (E. coli BL21) | MIC against E. cloacae (Enterobacter cloacae) | MIC against C. diversus (Citrobacter diversus)
50 µg/mL: MIC against A. hydrophila (Aeromonas hydrophila) | MIC (E. coli DH5α) | MIC against P. vulgaris (Proteus vulgaris)
12.5 µg/mL: MIC against K. pneumonia (Klebsiella pneumonia) | MIC against M. catarrhalis (Moraxella catarrhalis)

PRT1233 (ISEPCPSYCSGHGDCISGVCFCDLGYTAAQGTCV; listed as Homo sapiens)
12.5 µg/mL: MIC against E. coli BL21 (E. coli BL21) | MIC against E. cloacae (Enterobacter cloacae) | MIC against C. diversus (Citrobacter diversus) | MIC against P. vulgaris (Proteus vulgaris)
25 µg/mL: MIC against P. aeruginosa (Pseudomonas aeruginosa) | MIC against S. marcescens (Serratia marcescens) | MIC against P. mirabilis (Proteus mirabilis) | MIC (E. coli DH5α)
50 µg/mL: MIC against K. pneumonia (Klebsiella pneumonia) | MIC against A. hydrophila (Aeromonas hydrophila) | MIC against M. catarrhalis (Moraxella catarrhalis)

PRT1234 (LASGCPWMCSGRGICDAGRCVCDRGFGGPYCV; listed as Homo sapiens)
25 µg/mL: MIC against S. marcescens (Serratia marcescens) | MIC against K. pneumonia (Klebsiella pneumonia) | MIC against P. mirabilis (Proteus mirabilis) | MIC against A. hydrophila (Aeromonas hydrophila) | MIC against M. catarrhalis (Moraxella catarrhalis) | MIC (E. coli DH5α) | MIC against C. diversus (Citrobacter diversus)
12.5 µg/mL: MIC against P. aeruginosa (Pseudomonas aeruginosa) | MIC against P. vulgaris (Proteus vulgaris)
50 µg/mL: MIC against E. coli BL21 (E. coli BL21) | MIC against E. cloacae (Enterobacter cloacae)

PRT1235 (IGPQCEEMCNGQGSCINGTKCICDPGYSGPTCK; listed as Homo sapiens)
25 µg/mL: MIC against P. aeruginosa (Pseudomonas aeruginosa) | MIC against E. cloacae (Enterobacter cloacae)
50 µg/mL: MIC against P. vulgaris (Proteus vulgaris)
12.5 µg/mL: MIC against S. marcescens (Serratia marcescens) | MIC against K. pneumonia (Klebsiella pneumonia) | MIC against P. mirabilis (Proteus mirabilis) | MIC against E. coli BL21 (E. coli BL21) | MIC against A. hydrophila (Aeromonas hydrophila) | MIC against M. catarrhalis (Moraxella catarrhalis) | MIC (E. coli DH5α) | MIC against C. diversus (Citrobacter diversus)
